Assay results taken from patent publication US10583209B2, “Hyperpolarized 1-13C-1,1-bis(acetoxy(methyl))-2,2′-cyclopropane as metabolic marker for MR” (BRACCO IMAGING S.P.A., priority 2013, dated 2020).

Assays:
[1] = Liquid-state 13C-NMR after dissolution of hyperpolarized sample (T1, polarization, hydrolysis); type: physicochemical; settings: for T1, 37 C. 14.1 T: 13C longitudinal relaxation time, in s (unit assumed)
Description: C) The sample was dissolved in 5 ml phosphate buffer (40 mM, pH 7.3).

[2] = tested on: Rat liver cancer cells (Morris7777); assay: In cell DNP conversion in rat liver cancer cells, co-polarized with 1-13C-pyruvate; type: cell-based; settings: for AUC (arb. Units), area under the metabolic curve: 10 million cells, approx. 3.5 mM of each substrate, 37 C
Description: (§1) The experiments were performed with a co-polarization of 1-^13C-1,1-Bis(acetoxy(methyl-d2))-2,2′-d4-cyclopropane and 1-^13C-pyruvic acid in equal amounts of compounds (30 μmol) resulting in a concentration of approx. 3.5 mM of each substrate in the experiments. The DNP preparation of 1-^13C-1,1-Bis(acetoxy(methyl-d2))-2,2′-d4-cyclopropane was performed as described in example 2 and the DNP preparation of 1-^13C-pyruvate was performed as described in WO 2006/011809. The two substrates were co-polarized without mixing the substrates.
Rat liver cancer cells (Morris777) were grown in RPMI+10% FBS and antibiotics. Following trypsin harvesting 10 million cells were redissolved in 500 μl phosphate buffer (PBS) and transferred to a 10 mm NMR tube and placed with connecting tubing in a 14.1 T magnet at 37 C.
(§2) Following dissolution in 5 ml phosphate buffer (40 mM pH 7.3) with addition of 2.5 μl NaOH to neutralize the pyruvic acid 2 ml of the substrate mixture was injected into 10 million cells in suspension. A series of 20 degree pulses every 2 s (56 scans in total) was acquired. The acquisition was started just before injection of the hyperpolarized substrate. Data are presented as metabolite signals as a function of time or as area under the curve of the metabolite signals.

[3] = tested on: Human prostate cancer cells (PC-3); assay: Carboxyl esterase CE-2 activity by in cell DNP conversion in PC-3 cells, co-polarized with 1-13C-pyruvate; type: cell-based; settings: for AUC (arb. Units), area under the metabolic curve: 10 million cells, approx. 3.5 mM of each substrate, 37 C
Description: as §1
(§3) Human cancer cells (PC-3) were grown in RPMI+10% FBS and antibiotics. Following trypsin harvesting 10 million cells were redissolved in 500 μl phosphate buffer (PBS) and transferred to a 10 mm NMR tube and placed with connecting tubing in a 14.1 T magnet at 37° C.
as §2

[4] = tested on: prostate of healthy Copenhagen rats; assay: DNP-MRI conversion in the healthy prostate of living rats; type: in vivo, rat; settings: intravenous, about 0.4 mmol/kg, n=2 rats
Description: DNP-MRI experiment has been performed on 2 healthy Copenhagen rats, 9 weeks old, with average weight of 180 g.
0.24 mmol of a 1-^13C-1,1-Bis(acetoxy(methyl-d2))-2,2′-d4-cyclopropane sample prepared following the description in Example 2A was hyperpolarized according to the conditions reported in example 2.B. The solid sample was then dissolved in 5 ml TRIS buffer (100 mM, pH 7.7) to obtain a hyperpolarized solution with 48 mM substrate concentration and a pH of 7.
2.8 ml of the dissolved hyperpolarized 1-^13C-1,1-Bis(acetoxy(methyl-d2))-2,2′-d4-cyclopropane solution was injected intravenously at an injection rate of about 0.25 mL/s through a catheter placed in the tail vein of the animal, resulting in a total administered close of about 0.4 mmol/kg. A time series of 64 NMR spectra separated by 3 s and generated by 10° radiofrequency pulses was acquired starting from 15 s before injection of the hyperpolarized substrate. In order to follow the whole metabolic fate of the molecules and the decay of the hyperpolarized signal. The ^13C MR signal was collected by a 20 mm surface coil placed around the prostate. Spatial localization of the signal has been achieved by combining the limited sensitivity volume of the receiving coil with a slice selective spectroscopic sequence including a single gradient kept on only during the excitation period.

[5] = DNP hyperpolarization in the solid state; type: physicochemical; settings: DNP at 1.2 K, 3.35 T, microwave 93.900 GHz
Description: A) Finland radical, carboxylic acid form (0.7 mg, 0.67 μmol) was dissolved in 1-^13C-1,1-Bis(acetoxy(methyl-d2))-2,2′-d4-cyclopropane (45 μl, 50.7 mg, 0.27 mmol). To the solution was added a DMSO solution of the gadolinium complex ([alfa1,alfa4,alfa7-tris[(phenylmethoxy)methyl]-1,4,7,10-tetraazacyclododecane-1,4,7,10-tetraacetato(4-)]gadolinate(1-)]hydrogen) (0.75 mg of a 100 μmol/g solution). The concentration of radical and gadolinium were 15 mM and 1.6 mM respectively.
B) 30 μmol of a 1-^13C-1,1-Bis(acetoxy(methyl-d2))-2,2′-d4-cyclopropane sample made following the description in example 2.A was hyperpolarized. The composition was hyperpolarised under DNP conditions at 1.2 K in a 3.35 T magnetic field under irradiation with microwave (93.900 GHz). The polarization build-up constant was 750 s. The solid-state polarization was approx. 15%.

[6] = tested on: Human prostate cancer cells (PC-3) in comparison to healthy human prostate cells (PNT-1A); assay: In cell DNP conversion in PC-3 cells compared with healthy PNT-1A cells; type: cell-based; settings: 10 million cells, approx. 3.5 mM substrate
Description: The experiments were performed with a polarization of 1-^13C-1,1-Bis(acetoxy(methyl-d2))-2,2′-d4-cyclopropane (30 μmol) resulting in a concentration of approx. 3.5 mM of this substrate in the experiments. The DNP preparation of 1-^13C-1,1-Bis(acetoxy(methyl-d2))-2,2′-d4-cyclopropane was performed as described in example 2.
as §3, with “Human prostate” for “Human”, “(PC-3) or immortalized human prostate healthy cells” for “(PC-3)”
as §2, with “7.3),” for “7.3) with addition of 2.5 μl NaOH to neutralize the pyruvic acid”

O=[13C](O)/C=C/[13C](=O)O [1,4-13C2-Fumarate]
T1, 37 C. 14.1 T [1]: 35 ± 3

C[13C](=O)O [1-13C-acetate]
T1, 37 C. 14.1 T [1]: 50 ± 3

N[C@@H](CC[13C](N)=O)C(=O)O [5-13C-glutamine]
T1, 37 C. 14.1 T [1]: 22 ± 2

C[C@H](N)[13C](=O)O [1-13C-alanine]
T1, 37 C. 14.1 T [1]: 31 ± 2

CC([13CH3])CC(=O)C(=O)O (centres unmarked) [1-13C-2-ketoisocaproate]
T1, 37 C. 14.1 T [1]: 35 ± 4

CC(=O)[13C](=O)O [1-13C-pyruvate]
T1, 37 C. 14.1 T [1]: 45 ± 4

C[C@H](O)[13C](=O)O [1-13C-lactate, reference compound]
AUC (arb. Units), area under the metabolic curve [2]: 282 arb. Units | T1, 37 C. 14.1 T [1]: 40 ± 3 | AUC (arb. Units), area under the metabolic curve [3]: 3766 arb. Units

[2H]C([2H])(O)[13C]1(C([2H])([2H])O)C([2H])([2H])C1([2H])[2H] [1-^13C-1,1-(dihydroxy(methyl-d2))-2,2′-d4-cyclopropane]
AUC (arb. Units), area under the metabolic curve [2]: 1559 arb. Units

1,3-ethyl acetoacetate
T1, 37 C. 14.1 T [1]: 27 ± 2

[2H]C([2H])(O)[13C]1(C([2H])([2H])OC(C)=O)C([2H])([2H])C1([2H])[2H] [1-^13C-1-(acetoxy(methyl-d2))-1-(hydroxy(methyl-d2))-2,2′-d4-cyclopropane]
AUC of metabolite relative to that of 1-13C-lactate [2]: ~30 times | AUC (arb. Units), area under the metabolic curve [2]: 43480 arb. Units | AUC of metabolite relative to that of 1-13C-lactate [3]: ~6 times | AUC (arb. Units), area under the metabolic curve [3]: 20550 arb. Units

[2H]C([2H])(O)[13C]([2H])([2H])[N+](C)(C)C [2-13C-1,1,2,2-d4-choline]
T1, 37 C. 14.1 T [1]: 43 ± 4

O=[13C](O)CC(O)[13C](=O)O (centres unmarked) [1,4-13C2-malate]
T1, 37 C. 14.1 T [1]: 30 ± 3

O[13CH2][13C@H]1O[13CH](O)[13C@H](O)[13C@@H](O)[13C@@H]1O (some centres unmarked) [13C6-glucose]
T1, 37 C. 14.1 T [1]: 15 ± 2

[2H]C([2H])(OC(C)=O)[13C]1(C([2H])([2H])OC(C)=O)C([2H])([2H])C1([2H])[2H] [1-^13C-1,1-Bis(acetoxy(methyl-d2))-2,2′-d4-cyclopropane]
uptake and metabolic conversion in rat prostate in vivo [4]: taken up by prostate cells and converted into its hyperpolarized metabolites | polarization build-up constant [5]: 750 s | solid-state polarization [5]: approx. 15% | metabolic conversion relative to hyperpolarized 1-13C pyruvate, comparing the maximum metabolite signal [2]: approx. 15 times | liquid state polarization ([1]; 12 s after dissolution): 13% | T1, 37 C. 14.1 T [1]: 85 ± 4 | liquid state T1 ([1]; 14.1 T and 37 C, phosphate buffer 40 mM pH 7.3): approx. 85 s | hydrolysis in the dissolution process ([1]; dissolved in 5 ml phosphate buffer (40 mM, pH 7.3)): not hydrolysed | metabolic conversion in diseased cells (PC-3) relative to healthy cells (PNT-1A) [6]: approx. 6 times | metabolic conversion relative to hyperpolarized 1-13C pyruvate, comparing the maximum metabolite signal [3]: more than 3 times

OC[C@H]1O[13CH](O)[C@H](O)[C@@H](O)[C@@H]1O (some centres unmarked) [1-13C-glucose]
T1, 37 C. 14.1 T [1]: 20 ± 2
